What is called Ki is the equilibrium dissociation constant of an inhibitor or competing ligand from its target. Lower therefore signals tighter binding.

Structures can show the parent of a compound that is named as a salt.

Results on 3 compounds are retold here after BindingDB's records for doi:10.1074/jbc.270.11.6056 (Medical Research Council Centre, 1995).

For this assay, the target named is T1, 5-hydroxytryptamine receptor 3A (Mus musculus, UniProt P23979).
T1 sequence (P23979 whole entry): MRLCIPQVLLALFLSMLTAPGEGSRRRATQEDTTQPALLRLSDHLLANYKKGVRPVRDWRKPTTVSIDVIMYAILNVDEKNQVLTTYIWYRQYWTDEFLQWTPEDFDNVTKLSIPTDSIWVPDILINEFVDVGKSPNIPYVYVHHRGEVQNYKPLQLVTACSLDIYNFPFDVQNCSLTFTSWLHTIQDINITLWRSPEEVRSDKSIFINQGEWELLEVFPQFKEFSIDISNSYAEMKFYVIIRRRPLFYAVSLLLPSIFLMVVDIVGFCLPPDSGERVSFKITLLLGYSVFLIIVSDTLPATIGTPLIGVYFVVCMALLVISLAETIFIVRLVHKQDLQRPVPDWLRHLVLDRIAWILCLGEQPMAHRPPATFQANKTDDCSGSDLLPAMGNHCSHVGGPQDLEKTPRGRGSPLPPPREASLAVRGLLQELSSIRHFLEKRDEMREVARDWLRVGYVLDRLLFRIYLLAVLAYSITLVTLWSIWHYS

`CN1C2CCC1CC(OC(=O)c1cc(Cl)cc(Cl)c1)C2` (stereo not drawn) [MDL 72222] returned an inhibitory constant (Ki) of 13 nM.
The same measure for `Cc1nc[nH]c1CCC(=O)c1cc2ccccc2n1C` [CAS_124006]: 0.21 nM; for `N=C(N)NC(=N)Nc1cccc(Cl)c1` [1-(3-CHLOROPHENYL)BIGUANIDE HYDROCHLORIDE]: 0.94 nM.
